# Literature values in patent US6939987B2, “Method for producing Aspartame derivative, method for purifying the same, crystals thereof and uses of the same” (Ajinomoto Co., Inc., priority 1999, dated 2005).
# Settings: relative to sucrose; reported in International Patent Publication WO94/11391
structure (smiles),measurement,value
"COC(=O)[C@H](Cc1ccccc1)NC(=O)[C@H](CC(=O)O)NCCC(C)(C)C [N-[N-(3,3-dimethylbutyl)-L-α-aspartyl]-L-phenylalanine 1-methyl ester]",sweetening potency,10000 times that of sucrose
